Test results from patent US7592305B2, “Use of ghrelin for treating malnutrition in gastrectomized individuals” (Gastrotech Pharma A/S, priority 2002, dated 2009).
Ends that are not written are not given here. * marks the point of attachment. Octanoyl = CCCCCCCC(=O)*

Test system: gastrectomised rats
Assay: Treatment of totally gastrectomised (vagotomised) rats with ghrelin analogue MK-0677 by gavage
Type: in vivo, rat
Description: Total gastrectomy was performed and followed by end-to-end anastomosis between the esophagus and the duodenum as described in Lehto-Axtelius D., et al. Osteopenia after gastrectomy, fundectomy or antrectomy: an experimental study in the rat., Regul. Pept. 78 (1998), 41-50. The gastrectomy was accompanied by total vagotomy at the level of cardia. Sham operation was performed by opening the abdomen and moving the stomach.
In sham gastrectomised rats the ghrelin levels were 2.06±0.22 ng/ml, while they were less than the least detectable level of the assay, i e, 0.25 ng/ml after gastrectomy. From four weeks after gastrectomy the animals were administered either water or the ghrelin analogue MK-0677 by gavage once daily (4 mg/kg/day).
Food intake and body weight was measured daily and throughout the experiment. […] After two weeks of treatment, the animals were decapitated and blood and tissues collected and rapidly frozen. Gonadal, mesenteric and retroperitoneal far pads were dissected and weighed, and the sum of the weight was then calculated. Ghrelin was measured in serum using a kit purchased from Phoenix Pharmaceuticals as described (Dornonville de la Cour, supra).

[1] = 4 mg/kg/day by gavage once daily, after two weeks of treatment, vs water

| Molecule | body weight (4 mg/kg/day by gavage once daily from four weeks after gastrectomy, two weeks of treatment, vs water) | hypothalamic levels of neuropeptide Y (NPY) mRNA [1] | sum of dissected fat pad weights (gonadal, mesenteric and retroperitoneal) [1] | desire for food (food intake measured daily) (treated once daily by gavage) |
| --- | --- | --- | --- | --- |
| CC(C)(N)C(=O)N[C@H](COCc1ccccc1)C(=O)N1CCC2(CC1)CN(S(C)(=O)=O)c1ccccc12 [MK677] | increased | increased | enhanced | – |
| ghrelin: acylated peptide of 28 amino acids with an octanoyl ester attached to a serine residue (GSS(Octanoyl)FLSPEHQRVQQRKESKKPPAKLQPR; listed as Homo sapiens) | – | – | – | increased |
